In patent publication US20230107642A1 (Erasca, Inc., priority 2020, published 2023):

What follows are compounds tested against T1, K-Ras G12C (Homo sapiens, UniProt P01116, G12C) (assay: CAF assay (% CAF; method in Example 7, not in this part)). Settings: 10 uM compound, 1 h incubation.
T1 construct: This protein contained 188 amino acids in total, including an N-terminal 6-Histidine tag; made in house; host or cells: E. coli BL21
Type: binding

Compound | % CAF @ 10 uM, 1h [%]
C=CC(=O)N1C[C@H](C)N(c2nc(=O)n3c4c(c(-c5ccc(F)cc5)c(Cl)cc24)SC[C@@H]3CN2CCn3c(nnc3C(F)(F)F)C2)C[C@H]1C [Example 445, (S)-7-((2S,5R)-4-acryloyl-2,5-dimethylpiperazin-1-yl)-9-chloro-10-(4-fluorophenyl)-3-((3-(trifluoromethyl)-5,6-dihydro-[1,2,4]triazolo[4,3-a]pyrazin-7(8H)-yl)methyl)-2H-[1,4]thiazino[2,3,4-ij]quinazolin-5(3H)-one] | 68.2
C=CC(=O)N1CCN(c2nc(=O)n3c4c(c(-c5ccc(F)cc5F)c(C(F)(F)F)cc24)SCCC3)[C@@H](C)C1 [Example 450, 8-((S)-4-acryloyl-2-methylpiperazin-1-yl)-11-(2,4-difluorophenyl)-10-(trifluoromethyl)-3,4-dihydro-2H,6H-[1,4]thiazepino[2,3,4-ij]quinazolin-6-one] | 61
C=C(F)C(=O)N1C2CC(=O)CC1CN(c1nc(=O)n3c4c(c(-c5ccc(F)cc5F)c(C(F)(F)F)cc14)SCCC3)C2 [Example 451, 11-(2,4-difluorophenyl)-8-(9-(2-fluoroacryloyl)-7-oxo-3,9-diazabicyclo[3.3.1]nonan-3-yl)-10-(trifluoromethyl)-3,4-dihydro-2H,6H-[1,4]thiazepino[2,3,4-ij]quinazolin-6-one] | 61
C/C=C/C(=O)N1C2CC(=O)CC1CN(c1nc(=O)n3c4c(c(-c5ccc(F)cc5F)c(C(F)(F)F)cc14)SCC3)C2 [Example 452, (E)-7-(9-(but-2-enoyl)-7-oxo-3,9-diazabicyclo[3.3.1]nonan-3-yl)-10-(2,4-difluorophenyl)-9-(trifluoromethyl)-2,3-dihydro-5H-[1,4]thiazino[2,3,4-ij]quinazolin-5-one] | 63

Now from value to compound:

% CAF @ 10 uM, 1h [%] | Compound
38 | C=CC(=O)N1CCN(c2nc(=O)n3c4c(c(-c5cc(Cl)c(F)cc5F)c(Cl)cc24)SC[C@@H]3COCOC)[C@@H](C)C1 [Example 446, (3S)-7-((S)-4-acryloyl-2-methylpiperazin-1-yl)-9-chloro-10-(5-chloro-2,4-difluorophenyl)-3-((methoxymethoxy)methyl)-2H-[1,4]thiazino[2,3,4-ij]quinazolin-5(3H)-one]
63.3 | C=CC(=O)N1CCN(c2nc(=O)n3c4c(c(-c5cc(Cl)c(F)cc5F)c(Cl)cc24)SC[C@@H]3CN2CCn3c(nnc3C(F)(F)F)C2)[C@@H](C)C1 [Example 447, (3S)-7-((S)-4-acryloyl-2-methylpiperazin-1-yl)-9-chloro-10-(5-chloro-2,4-difluorophenyl)-3-((3-(trifluoromethyl)-5,6-dihydro-[1,2,4]triazolo[4,3-a]pyrazin-7(8H)-yl)methyl)-2H-[1,4]thiazino[2,3,4-ij]quinazolin-5(3H)-one]
55 | C=CC(=O)N1C[C@H](C)N(c2nc(=O)n3c4c(c(-c5cc(Cl)c(F)cc5F)c(Cl)cc24)SC[C@@H]3CN2CCn3c(nnc3C(F)(F)F)C2)C[C@H]1C [Example 448, (3S)-7-((2S,5R)-4-acryloyl-2,5-dimethylpiperazin-1-yl)-9-chloro-10-(5-chloro-2,4-difluorophenyl)-3-((3-(trifluoromethyl)-5,6-dihydro-[1,2,4]triazolo[4,3-a]pyrazin-7(8H)-yl)methyl)-2H-[1,4]thiazino[2,3,4-ij]quinazolin-5(3H)-one]
51.6 | C=CC(=O)N1C[C@H](C)N(c2nc(=O)n3c4c(c(-c5cc(Cl)c(F)cc5F)c(Cl)cc24)SC[C@@H]3CN2CCC3(CC2)COC3)C[C@H]1C [Example 449, (3S)-3-(2-oxa-7-azaspiro[3.5]nonan-7-ylmethyl)-7-((2S,5R)-4-acryloyl-2,5-dimethylpiperazin-1-yl)-9-chloro-10-(5-chloro-2,4-difluorophenyl)-2H-[1,4]thiazino[2,3,4-ij]quinazolin-5(3H)-one]
